Measured values published in paper PMC3006138, “Fexinidazole – A New Oral Nitroimidazole Drug Candidate Entering Clinical Development for the Treatment of Sleeping Sickness” (PLoS Neglected Tropical Diseases, 2010).
“And” between values parts separate entries of the source, which are not always exact repeats. Equal entries are not always repeated.

Assays:
[1] = tested on: T. b. rhodesiense (STIB 900); assay: In vitro trypanocidal assay (Alamar Blue); format: cell-based, Trypanosoma brucei rhodesiense; settings: Trypanosoma brucei, 72 h
Protocol: (§1) 10 µL of Alamar Blue was added for the final 3 h to determine viability. […] The IC50 values were calculated from the sigmoidal inhibition curves. For cytotoxicity, 4×10^4/mL L-6 rat skeletal myoblast cells were used, and incubations and assessments carried out as above.

[2] = tested on: T. b. gambiense (STIB 930); assay: In vitro trypanocidal assay (Alamar Blue); format: cell-based, Trypanosoma brucei gambiense; settings: Trypanosoma brucei, 72 h
Protocol: Parasites were cultured with or without the test article at a concentration of 3×10^4/mL in Minimal Essential Medium, according to Baltz et al., with the following modifications: 0.2 mM 2-mercaptoethanol, 1 mM Na-pyruvate, 0.5 mM hypoxanthine and 15% heat inactivated horse serum at 37°C in 5% CO2 in 96-well microtitre plates for 72 h. 10 µL of Alamar Blue was added for the final 3 h to determine viability. The assay was assessed by reading the fluorescence in each well at an excitation wavelength of 536 nm and at an emission wavelength of 588 nm. The IC50 values were calculated from the sigmoidal inhibition curves. For cytotoxicity, 4×10^4/mL L-6 rat skeletal myoblast cells were used, and incubations and assessments carried out as above.

L-6 rat myoblast cells = assay: Cytotoxicity assay; format: cell-based; settings: 72 h
Protocol: as §1

T. b. gambiense 130R = assay: Acute infection mouse model; format: in vivo; settings: 4 mg/kg×4 days ip
Protocol: (§2) Female NMRI mice were infected via intraperitoneal injection with bloodstream forms of T. b. rhodesiense STIB900 or T. b. gambiense 130R and treated with test drugs daily for 4 consecutive days, starting on day 3 or 7 after infection, respectively, or with bloodstream forms of T. b brucei GVR35 and treated daily from day 21 after infection for 5 days. Parasitemia was evaluated by tail blood examination and surviving, aparasitaemic mice at 60, 90, or 180 days, respectively, were considered cured.

T. b. brucei GVR35 [3] = assay: Chronic (stage 2) infection mouse model; format: in vivo
Protocol: as §2

[4] = stage 2 HAT patients; cited from earlier work
Caco-2 cell monolayers = assay: in vitro; settings: Caco-2
Protocol: (§3) Caco-2 [36] or MDR1-MDCK (Madin Darby canine kidney cells transfected with the human multidrug resistance MDR1 gene) cell monolayers were grown to confluence on collagen-coated, microporous, polycarbonate membranes in 12-well microtitre plates. The buffer for the donor chamber was Hanks balanced salt solution with 10 mM HEPES and 15 mM glucose at pH 7.4. The buffer in the receiver chamber contained the same with the addition of 1% bovine serum albumin (BSA). The test article was added at 5 µM in the assay buffer. […] After 2 h, duplicate aliquots were taken from the donor and receiver chambers and assayed via LC/MS. The apparent permeability and recovery were calculated using standard methods.
(§4) The objective of this study was to determine the bi-directional Caco-2 permeability and efflux limited absorption poten tial of thr ee test compoun ds. […]
(§5) 4 . […] Th e test compound dosing concentrations were 5 µM in th e a ssay bu f fer . […] After two hours, a l iquot s wer e t a ken fr om th e r ecei ver an d don or cha m ber s. E a ch det erm ina ti on wa s per for m ed in dupl i cat e. Th e Lucifer Yellow flux was also measur ed for each mon olayer after bein g subjected to th e test compoun ds to en sur e n o damage was in flicted to th e cell mon olayer s durin g th e flux per iod. All samples wer e assayed by LC/MS/MS usin g electrospray ionization. Analytical conditions are outlined in Attachment I. The apparent permeability, Papp, and per cen t r ecover y wer e calculated as follows:
(§6) Papp = (dCr /dt) x Vr/(AxC) (1)
(§7) P er cen t Rec o ver y = 1 0 0 x ( ( V r x C rfi n a l ) + (Vd x Cd fi n a l ))/(Vd x C N) (2) […]
(§8) dCr /dt is th e slope of th e cumulative con cen tration in th e r eceiver compartment ver sus time in µM s -1. […]

[5] = tested on: MDR1-MDCK cell monolayers; assay: MDR1-MDCK permeability; settings: plate certification
Protocol: as §3
(§9) The objective of this study was to determine the bi-directional MDR1-MDCK permeability and efflux limited absor ption potential of thr ee test compounds. […]
(§10) 4. Th e buff er in th e r ecei ver cha m ber a l so con t a in ed 1% Bovi n e Ser um Al bumin ( BSA) . Th e test compound dosing concentrations were 5 µM in th e a ssay bu f fer . […] After two hours, a l iquot s wer e t a ken fr om th e r ecei ver an d don or cha m ber s. E a ch det erm ina ti on wa s per for m ed in dupl i cat e. Th e Lucifer Yellow flux was also measur ed for each mon olayer after bein g subjected to th e test compoun ds to en sur e n o damage was in flicted to th e cell mon olayer s durin g th e flux per iod. All samples wer e assayed by LC/MS/MS usin g electrospray ionization. Analytical conditions are outlined in Attachment I. The apparent permeability, Papp, and per cen t r ecover y wer e calculated as follows: […]
as §8

T. b. brucei GVR35 [6] = assay: Chronic (stage 2) infection mouse model; format: in vivo; settings: 40 mg/kg×1 ip, day 21
Salmonella typhimurium = tested on: Salmonella typhimurium; set-up: method as in ref 58 (Suter et al.); settings: standard strains, ref 58 (Suter et al.); cited from earlier work
colon or liver = settings: mouse, in vivo; cited from earlier work
jejunum or liver = settings: rat, in vivo; cited from earlier work
rat liver DNA = settings: in vivo; cited from earlier work
Caco-2 permeability = settings: human, Caco-2
Protocol: as §3, §4, §5, §6, §7, §8

[7] = tested on: MDR1 (human, transfected); assay: MDR1-MDCK permeability; settings: dog, MDCK-MDR1
Protocol: as §3, §9, §10, §8

human MDR1 = assay: MDR1-MDCK permeability; settings: dog, MDCK-MDR1
Protocol: as §3, §9, §10, §8

[8] = 15 mg/kg×5 days ip, separate experiment

Compound: Nc1nc(N)nc(Nc2ccc([As]3SCC(CO)S3)cc2)n1 (stereo not shown) [Melarsoprol, reference compound]
- IC50 [1]: 4 to 9 nM
- IC50 [2]: 0.0015 µg/mL to 0.003 µg/mL and 4 nM to 6 nM
- IC50 (L-6 rat myoblast cells): 1.3 µg/mL and 3.3 µM
- Cured/infected (T. b. gambiense 130R): 4/4
- Mean relapse time (T. b. gambiense 130R): >90 days
- Cured/infected (T. b. brucei GVR35 [3]; 10 mg/kg×5 days ip): 2/8
- Mean relapse time (T. b. brucei GVR35 [3]; 10 mg/kg×5 days ip): >96.6 days
- Cured/infected (T. b. brucei GVR35 [3]; [8]): 4/5
- Mean relapse time (T. b. brucei GVR35 [3]; [8]): >180 days
- cure (T. b. brucei GVR35 [3]; five daily ip injections of 15 mg/kg): 100%
- treatment-related mortality [4]: ~5%

Compound: Lucifer Yellow [reference compound]
- Papp (Caco-2 cell monolayers): 0.23 10-6 cm/s
- Papp [5]: 0.12 10-6 cm/s

Compound: N=C(N)c1ccc(/N=N/Nc2ccc(C(=N)N)cc2)cc1 [Diminazene, Diminazine diaceturate]
- Cured/infected (T. b. brucei GVR35 [6]): 0/4
- Mean relapse time (T. b. brucei GVR35 [6]): 48.6 days

Compound: O=c1[nH]c2cc([N+](=O)[O-])cc(CNCP(=O)(O)O)c2[nH]c1=O [AMP397]
- bacterial mutagenicity (Salmonella typhimurium): positive Ames test results
- mutagenicity in colon or liver (colon or liver): No evidence of mutagenicity
- genetic damage in jejunum or liver (jejunum or liver): did not detect any genetic damage
- DNA binding in rat liver (rat liver DNA): failed to show any DNA binding

Compound: C[C@H]1O[C@@H](O[C@H]2[C@@H](O)C[C@H](O[C@H]3[C@@H](O)C[C@H](O[C@H]4CC[C@@]5(C)[C@H](CC[C@@H]6[C@@H]5C[C@@H](O)[C@]5(C)[C@@H](C7=CC(=O)OC7)CC[C@]65O)C4)O[C@@H]3C)O[C@@H]2C)C[C@H](O)[C@@H]1O [Digoxin, reference compound]
- Papp A→B (Caco-2 permeability): 0.53 ×10⁻⁶ cm/s
- Papp B→A (Caco-2 permeability): 10.4 ×10⁻⁶ cm/s
- efflux ratio (Caco-2 permeability): 19.6
- efflux ratio [7]: 68.8
- Papp A→B (human MDR1): 0.13 ×10⁻⁶ cm/s
- Papp B→A (human MDR1): 8.83 ×10⁻⁶ cm/s
